Measurements as given in US20240384268A1, “Oligonucleotides” (Hudson Institute of Medical Research, priority 2021, published 2024).

Molecular target: T1, human TLR7 (Homo sapiens, UniProt Q9NYK1)
T1 construct: HA; host or cells: 293XL-hTLR7-HA (HEK293)
T1 sequence (Q9NYK1 27-1049): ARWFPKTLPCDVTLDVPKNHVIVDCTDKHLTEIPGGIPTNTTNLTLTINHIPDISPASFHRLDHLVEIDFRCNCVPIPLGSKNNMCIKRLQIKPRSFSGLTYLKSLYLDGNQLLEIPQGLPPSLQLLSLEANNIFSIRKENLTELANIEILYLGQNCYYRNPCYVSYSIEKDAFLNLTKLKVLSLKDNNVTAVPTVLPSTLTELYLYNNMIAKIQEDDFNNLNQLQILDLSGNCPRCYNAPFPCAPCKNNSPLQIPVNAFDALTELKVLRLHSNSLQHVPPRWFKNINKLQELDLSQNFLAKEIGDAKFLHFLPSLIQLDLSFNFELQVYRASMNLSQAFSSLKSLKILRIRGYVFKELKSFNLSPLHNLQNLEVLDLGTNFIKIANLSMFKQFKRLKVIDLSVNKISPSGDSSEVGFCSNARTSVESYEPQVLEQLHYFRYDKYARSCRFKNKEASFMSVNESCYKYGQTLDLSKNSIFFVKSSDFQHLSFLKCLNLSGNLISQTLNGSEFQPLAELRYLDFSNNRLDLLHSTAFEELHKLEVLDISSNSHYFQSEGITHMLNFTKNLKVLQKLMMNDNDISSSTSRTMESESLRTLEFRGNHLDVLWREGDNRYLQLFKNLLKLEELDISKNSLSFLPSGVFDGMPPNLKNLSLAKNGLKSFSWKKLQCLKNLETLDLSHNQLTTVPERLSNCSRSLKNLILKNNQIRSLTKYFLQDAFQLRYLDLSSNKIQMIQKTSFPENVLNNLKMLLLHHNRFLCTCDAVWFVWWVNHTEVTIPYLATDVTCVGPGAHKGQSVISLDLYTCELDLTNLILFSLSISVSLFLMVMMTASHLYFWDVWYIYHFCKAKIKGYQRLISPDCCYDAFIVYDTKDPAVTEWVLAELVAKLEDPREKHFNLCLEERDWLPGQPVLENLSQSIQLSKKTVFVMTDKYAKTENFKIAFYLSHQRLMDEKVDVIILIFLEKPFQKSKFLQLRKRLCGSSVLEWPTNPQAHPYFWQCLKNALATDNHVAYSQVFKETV
Assay: HEK-TLR7 NF-κB-luciferase reporter, R848 stimulation
Type: cell-based
Settings: averaged NF-κB-Luciferase relative to R848 condition; for TLR7 100 nM: MOE-modified ASO at 100 nM; for TLR7 500 nM: MOE-modified ASO at 500 nM

Sequence	TLR7 100 nM	TLR7 500 nM
GGTGGTGGCCACCCATCTCA (antisense; 2'-MOE modified, pattern not given here) [CTNN2B-2479 MOE]	0.480	0.192
GGTGTCCTTGCACGTGGCTT (antisense; 2'-MOE modified, pattern not given here) [EGFR-1016 MOE]	0.358	0.131
GTCCACATCCTGTGGCTCGT (antisense; 2'-MOE modified, pattern not given here) [CAMSAP1-2906 MOE]	0.299	0.119
GTCCTTGCACGTGGCTTCGT (antisense; 2'-MOE modified, pattern not given here) [EGFR-1013 MOE]	0.216	0.088
GTCTTGGCTTCGTGGAGCAG (antisense; 2'-MOE modified, pattern not given here) [MB21D1-520 MOE]	0.372	0.095
GTGTCCTTGCACGTGGCTTC (antisense; 2'-MOE modified, pattern not given here) [EGFR-1015 MOE]	0.377	0.212
GTGTCTTCATCGGCCCTGCC (antisense; 2'-MOE modified, pattern not given here) [CAMSAP1-2113 MOE]	0.371	0.132
TAGGCACTTTGCCTCCTTCT (antisense; 2'-MOE modified, pattern not given here) [EGFR-2859 MOE]	0.455	0.205
TAGTCAAGGGCATATCCTAC (antisense; 2'-MOE modified, pattern not given here) [HPRT-732 MOE]	0.423	0.191
TCAAAGGACTGAGGAAAGGG (antisense; 2'-MOE modified, pattern not given here) [CAMSAP1-6273 MOE]	0.397	0.189
TCCAACACTTCGTGGGGTCC (antisense; 2'-MOE modified, pattern not given here) [HPRT-667 MOE]	0.929	0.578
TCGCACTTCAGTCTGAGCAG (antisense; 2'-MOE modified, pattern not given here) [MB21D1-719 MOE]	0.574	0.241
TGTCCTTGCACGTGGCTTCG (antisense; 2'-MOE modified, pattern not given here) [EGFR-1014 MOE]	0.029	0.057
TGTCTTCATCGGCCCTGCCT (antisense; 2'-MOE modified, pattern not given here) [CAMSAP1-2112 MOE]	0.396	0.185
TGTGATGGCCTCCCATCTCC (antisense; 2'-MOE modified, pattern not given here) [HPRT-332 MOE]	0.312	0.238
TTCTGCAGCTTCCTTGTCCT (antisense; 2'-MOE modified, pattern not given here) [CTNN2B-2136 MOE]	0.183	0.059
TTGCACACTTCGTACCCAAA (antisense; 2'-MOE modified, pattern not given here) [CAMSAP1-4915 MOE]	0.418	0.233
TTGCCATGCTGGCTCGGACT (antisense; 2'-MOE modified, pattern not given here) [CAMSAP1-2584 MOE]	0.445	0.138
TTGGCTCGGCTTGCCTACTT (antisense; 2'-MOE modified, pattern not given here) [CAMSAP1-5594 MOE]	0.523	0.204
